Data as given in patent US20250186404A1, “METHODS OF USING A (THIAZOLYL)BENZENESULFONAMIDE DERIVATIVE” (Cyteir Therapeutics, Inc., priority 2023, published 2025).

Assays:
[1] = system: SU8686; assay: Compound 67A sensitivity of CRISPR screen cell line SU8686; type: cell-based; conditions: Homo sapiens, SU.86.86; SU8686, Pancreatic Cancer
Description: (§1) Three cell lines with varying sensitivities to Compound 67A were utilized in the CRISPR screen (Table 3, FIG. 11).

[2] = system: ES2 ovarian cancer cell line; assay: ES2 cytotoxicity (Cytotox Green) and cell viability (CellTiterGlo, NCI method); type: cell-based
Description: MCT4 was over-expressed in ES2 cells following lentiviral transduction. Cell viability was assessed in empty vector (EV) control and MCT4 over-expressing cells after Compound 67A treatment and relative cell growth was quantified using the NCI method (FIG. 10).
The ES2 ovarian cancer cell line was treated with a titration of Compound 67A, and cytotoxicity was assessed after 24 hours of treatment with Cytotox Green and cell viability after 96 hours with CellTiterGlo (FIG. 18).

[3] = system: Daudi human lymphoma cells; assay: Reversal of 3-bromopyruvate-induced cytotoxicity; type: cell-based; conditions: 3-bromopyruvate (MCT1 substrate)
Description: Compound 67A data across 439 cell lines was cross-compared with available DepMap gene essentiality data and gene expression data. A genome-wide CRISPR screen identified genes that influenced sensitivity to Compound 67A. MDCKII cells expressing human MCT1 were treated with Compound 67A and transport of the MCT1 substrate, 2-thiophene-glyoxylic acid, was quantified by LC-MS. Compound 67A-mediated reversal of cytotoxicity induced by 3-bromopyruvate, an MCT1 substrate, was measured in Daudi human lymphoma cells. Lactate was measured using Lactate-Glo. Extracellular acidification and O2 consumption were measured by Seahorse.

[4] = target: T1, MCT1/BSG complex (Homo sapiens, UniProt P53985); assay: Microscale thermophoresis (MST) direct binding; conditions: purified hexahistidine-tagged MCT1/BSG complex, read-out: Kd, binding to MCT1/basigin
T1 sequence (P53985 1-500): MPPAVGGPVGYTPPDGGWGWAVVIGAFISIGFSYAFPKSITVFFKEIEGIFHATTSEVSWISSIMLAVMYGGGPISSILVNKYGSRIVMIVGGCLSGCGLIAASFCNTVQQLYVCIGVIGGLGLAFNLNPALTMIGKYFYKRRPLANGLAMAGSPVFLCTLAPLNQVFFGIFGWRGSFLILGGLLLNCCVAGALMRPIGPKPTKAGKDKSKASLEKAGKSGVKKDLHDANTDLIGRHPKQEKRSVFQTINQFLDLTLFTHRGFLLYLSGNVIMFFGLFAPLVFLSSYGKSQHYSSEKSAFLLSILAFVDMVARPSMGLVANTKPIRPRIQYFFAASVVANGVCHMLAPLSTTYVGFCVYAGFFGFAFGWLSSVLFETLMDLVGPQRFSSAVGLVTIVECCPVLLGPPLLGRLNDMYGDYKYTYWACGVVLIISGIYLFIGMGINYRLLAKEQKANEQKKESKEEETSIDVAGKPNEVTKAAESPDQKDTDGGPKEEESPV
T1 sequence (P35613 140-385 partner limits assumed): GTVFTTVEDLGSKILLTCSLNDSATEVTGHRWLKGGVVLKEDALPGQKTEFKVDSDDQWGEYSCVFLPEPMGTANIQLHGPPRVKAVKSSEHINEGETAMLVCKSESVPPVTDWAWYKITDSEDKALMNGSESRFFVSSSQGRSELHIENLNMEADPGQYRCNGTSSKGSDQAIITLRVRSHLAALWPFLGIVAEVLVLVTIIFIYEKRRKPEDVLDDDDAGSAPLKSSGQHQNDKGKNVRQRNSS
Description: Microscale thermophoresis (MST) monitors the solution phase change in protein fluorescence and mobility in response to a temperature gradient created with an infrared laser. The method is compatible with detergent solubilized proteins and enables measurement of direct ligand binding.
Purified hexahistidine-tagged MCT1/BSG complex was mixed with a hexahistidine interacting fluorescent dye and MST was monitored as a function of compound concentration.

[5] = system: Raji lymphoma cells; assay: Seahorse XF ECAR and OCR measurement; type: cell-based; conditions: Seahorse XF Analyzer
Description: The utilization of glycolysis and oxidative phosphorylation (OXPHOS) were measured by the extracellular acidification rate (ECAR) and oxygen consumption rate (OCR), respectively, in Raji lymphoma cells via the Seahorse XF Analyzer.

[6] = system: Pfeiffer; assay: Compound 67A sensitivity of CRISPR screen cell line Pfeiffer; type: cell-based; conditions: Homo sapiens, Lymphoma
Description: as §1

[7] = system: T47D; assay: Compound 67A sensitivity / cell growth inhibition of CRISPR screen cell line T47D; type: cell-based
Description: as §1
Screen hits (FDR<0.2) were identified using the drugZ algorithm (FIG. 13). MCT4 was the most significant hit consistent between the SU8686 and T47D cell lines, sensitizing both lines to Compound 67A treatment.

[8] = system: Daudi (Burkitt Lymphoma) cells; assay: Intracellular Lactate Accumulation Assay (Lactate-Glo); type: cell-based, human
Description: Intracellular lactate accumulation after a 2 h treatment with compounds of the present invention was measured in Daudi (Burkitt Lymphoma) cells using the Lactate-Glo Assay (Promega).
Daudi cells were seeded at 7,500 cells per well in 150 μL of growth medium (RPMI-1640 with 2 mM GlutaMAX+10% FBS) in clear, 96-well, flat-bottom microplates, and incubated overnight (37° C., 5% CO2). Compounds of the present invention were added using an INTEGRA VIAFLO 96 (8 point, 3-fold serial dilution, top concentration 1, 10, or 20 μM, 0.4% final DMSO concentration). After a 2 h incubation (37° C., 5% CO2) microplates containing cells were washed twice with 150 μL ice-cold PBS, resuspended in 25 μL ice-cold PBS containing 12.5 μL 0.6N HCl, and placed on a microplate shaker for 5 min to lyse the cells. Following lysis, 12.5 μL 1M Trizma base was added to neutralize the suspension, and microplates were returned to the microplate shaker for 1 min. Plates were sealed and stored at −20° C. until further processing. On the day of the assay, microplates were thawed for 45 min at room temperate and 50 μL Lactate Detection Reagent (prepared as specified by manufacturer) was added to each well. Microplates were placed on a plate shaker for 1 min and incubated at room temperature for 1 h. Luminescence was measured using a BioTek Cytation 5 Multi-Mode Reader. Curve fitting and calculation of EC50 was performed using GraphPad Prism.
In addition, Daudi human lymphoma cells were treated with a titration of Compound 67A for 4 h, then intracellular lactate was measured via LactateGlo (FIG. 2). Compound 67A treatment elevates intracellular lactate (FIGS. 3-5). […] Inhibiting MCT function in glycolytic cancer cells leads to an accumulation of intracellular lactate that impairs glycolysis and inhibits tumor cell growth, thereby making MCTs an attractive target for cancer therapy. Compound 67A inhibits the import of MCT ligands into cells, and induces dose-dependent intracellular lactate accumulation that correlates with cytotoxicity. MCT4 expression inversely correlates with lactate accumulation and the extent of Compound 67A cytotoxicity in cells.

IC50 [1]: > 20000 nM
Kd [4]: 89 nM
IC50 [6]: 520 nM
IC50 ([7]; Homo sapiens, T47D, Breast Cancer): 5860 nM
IC50 ([8]; Daudi human lymphoma cells, 4 h treatment, LactateGlo, read-out: induces lactate accumulation, IC50): 370 nM
EC50 ([8]; Homo sapiens, Daudi cells, 2 h treatment, intracellular lactate accumulation, read-out: LactateGlo EC50): 150 to 1000 nM
Compound: CC(C)OC(=O)Nc1ccc(-c2cnc([C@H]3CC[C@H](NC(=O)OC(C)C)CC3)s2)c(S(=O)(=O)NC(C)(C)C)c1 [Compound 67A]
cytotoxic response ([2]; ES2, Cytotox Green after 24 hours and CellTiterGlo after 96 hours): induced a clear cytotoxic response
effect of MCT4 over-expression on anti-proliferative effects ([2]; ES2 MCT4 over-expressing vs empty vector control, NCI method): significantly reduced Compound 67A-mediated anti-proliferative effects
protection from cytotoxic effects of 3-bromopyruvate [3]: protected cells from the cytotoxic effects of 3-bromopyruvate
extracellular acidification rate (ECAR) [5]: dose-dependent decrease in ECAR
oxygen consumption rate (OCR) [5]: concomitant increase in OCR
effect of MCT4 knockout on cell growth inhibition ([7]; T47D cells, MCT4 knockout): enhanced Compound 67A-mediated cell growth inhibition
